Experimental data published in US7622469B2, “2,4-diamino-1,3,5-triazine derivatives” (Hamari Chemicals, Ltd., priority 2002, dated 2009).

Tests used:
E. coli NIHJ JC-2 [1] = assay: Bactericidal activity test (MBC, phenol coefficient measuring method); format: cell-based
Protocol: (§1) As a test bacterium, the same bacteria species as those of the antibacterial activity test were used; as a medium to be used, a SCD medium (manufactured by Eiken Chemical Co., Ltd.) was used for pre-culture medium; and a heart infusion bouillon medium (manufactured by Eiken Chemical Co., Ltd.) was used as a medium for growing a live bacterium in a test solution after bactericidal treatment. One platinum loop of a test bacterium was inoculated into 20 ml of a medium, and static culture was carried out at 37° C. for 18 to 20 hours, and the cells were adjusted with a sterilized physiological saline to 1×10^7/ml, which was used as a test bacterium solution.
(§2) Then, a solution of each compound in methanol was subjected to ½ stepwise dilution with sterilized water, each 5 ml was dispensed into a test tube, 0.5 ml of the previously prepared test bacterium solution was added thereto, and the mixture was blended well. After 1 minute, 3 minutes and 5 minutes has passed, 5 μl of the test solution was collected and inoculated into 2 ml of a heart infusion bouillon medium, this was cultured at 37° C. for 40 to 48 hours, and the presence or absence of growth of a bacterium was determined. A test was performed three times, a minimum concentration at which growth of a bacterium was not recognized two or more times was adopted as a minimal bactericidal concentration (MBC value).
(§3) Numerical values in Tables represent MBC expressed in μg/ml unit.

S. aureus 209PJC [2] = assay: as above; format: cell-based
Protocol: as §1, §2, §3

P. aeruginosa No. 12 [3] = assay: as above; format: cell-based
Protocol: as §1, §2, §3

P. aeruginosa KM 97-5 [4] = assay: as above; format: cell-based
Protocol: as §1, §2, §3

VRE 49 [5] = assay: as above; format: cell-based, vancomycin-resistant enterococci
Protocol: as §1, §2, §3

MRSA KM 97-53 [6] = assay: Antibacterial activity test (MIC); format: cell-based, methicillin-resistant Staphylococcus aureus; conditions: Mueller-Hinton Broth, 37° C., 20 to 24 hours
In short: (§4)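 Broth dilution MIC per Japanese Society of Chemotherapy method, in Mueller-Hinton Broth with inoculum of 10^5/ml from 16–20 h cultures at 37° C. Compound (methanol-dissolved) tested at 100 μg/ml and 2^n-fold (n=−10 to 1) twofold steps; MIC expressed in μg/ml.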

MRSA KM 97-108 [7] = assay: Antibacterial activity test (MIC); format: cell-based, methicillin-resistant Staphylococcus aureus; conditions: Mueller-Hinton Broth, 37° C., 20 to 24 hours
In short: as §4

MRSA 97-115 [8] = assay: Antibacterial activity test (MIC); format: cell-based, methicillin-resistant Staphylococcus aureus; conditions: Mueller-Hinton Broth, 37° C., 20 to 24 hours
In short: as §4

MRSA KM 97-53 [9] = assay: Bactericidal activity test (MBC, phenol coefficient measuring method); format: cell-based, methicillin-resistant Staphylococcus aureus
Protocol: as §1, §2, §3

MRSA KM 97-108 [10] = assay: as above; format: cell-based, methicillin-resistant Staphylococcus aureus
Protocol: as §1, §2, §3

MRSA 97-115 [11] = assay: as above; format: cell-based, methicillin-resistant Staphylococcus aureus
Protocol: as §1, §2, §3

E. coli NIHJ JC-2 [12] = assay: Antibacterial activity test (MIC); format: cell-based; conditions: Mueller-Hinton Broth, 37° C., 20 to 24 hours
In short: as §4

S. aureus 209PJC [13] = assay: Antibacterial activity test (MIC); format: cell-based; conditions: Mueller-Hinton Broth, 37° C., 20 to 24 hours
In short: as §4

P. aeruginosa No. 12 [14] = assay: Antibacterial activity test (MIC); format: cell-based; conditions: Mueller-Hinton Broth, 37° C., 20 to 24 hours
In short: as §4

P. aeruginosa KM 97-5 [15] = assay: Antibacterial activity test (MIC); format: cell-based; conditions: Mueller-Hinton Broth, 37° C., 20 to 24 hours
In short: as §4

VRE 49 [16] = assay: Antibacterial activity test (MIC); format: cell-based, vancomycin-resistant enterococci; conditions: Mueller-Hinton Broth, 37° C., 20 to 24 hours
Protocol: Regarding compounds obtained in respective Working Examples, in order to investigate antibacterial activity, minimal inhibitory concentration (MIC) was determined according to a standard method of Japanese Society of Chemotherapy.
As a test bacterium, nine kinds of S. aureus 209PJC, MRSA 97-115, MRSA KM 97-53, MRSA KM97-108, VRE 49, E. coli NIHJ JC-2, P. aeruginosa PAO-1, P. aeruginosa No. 12, P. aeruginosa KM97-5 were used and, as a medium, Mueller-Hinton Broth (DIFCO) was used. One platinum loop of a test bacterium was inoculated into 20 ml of a medium, and static culture was carried out at 37° C. for 16 to 20 hours, and then each bacterium species was diluted with a sterilized physiological saline to 10^5/ml, which was used as a test bacterium solution.
Then, each compound was dissolved in methanol, subjected to ½ stepwise dilution with a medium to prepare a medium for measuring sensitivity, and each 2 ml was dispensed into a test tube. A compound concentration in a medium was adjusted to 100 μg/ml and its 2^n-fold (n=−10 to 1).
Numerical values in Tables represent MIC expressed in μg/ml unit.

P. aeruginosa PAO-1 [17] = assay: Bactericidal activity test (MBC, phenol coefficient measuring method); format: cell-based
Protocol: as §1, §2, §3

P. aeruginosa PAO-1 [18] = assay: Antibacterial activity test (MIC); format: cell-based; conditions: Mueller-Hinton Broth, 37° C., 20 to 24 hours
In short: as §4

| minimal inhibitory concentration (MIC) (MRSA 97-115 [8]) [µg/mL] | minimal inhibitory concentration (MIC) (E. coli NIHJ JC-2 [12]) [µg/mL] | minimal inhibitory concentration (MIC) (S. aureus 209PJC [13]) [µg/mL] | minimal inhibitory concentration (MIC) (P. aeruginosa PAO-1 [18]) [µg/mL] | SMILES | minimal bactericidal concentration (MBC) (E. coli NIHJ JC-2 [1]; 1 min) [µg/mL] | minimal bactericidal concentration (MBC) (E. coli NIHJ JC-2 [1]; 3 min) [µg/mL] | minimal bactericidal concentration (MBC) (E. coli NIHJ JC-2 [1]; 5 min) [µg/mL] | minimal bactericidal concentration (MBC) (S. aureus 209PJC [2]; 1 min) [µg/mL] | minimal bactericidal concentration (MBC) (S. aureus 209PJC [2]; 3 min) [µg/mL] | minimal bactericidal concentration (MBC) (S. aureus 209PJC [2]; 5 min) [µg/mL] | minimal bactericidal concentration (MBC) (MRSA 97-115 [11]; 1 min) [µg/mL] | minimal bactericidal concentration (MBC) (MRSA 97-115 [11]; 3 min) [µg/mL] | minimal bactericidal concentration (MBC) (MRSA 97-115 [11]; 5 min) [µg/mL] | minimal bactericidal concentration (MBC) (P. aeruginosa PAO-1 [17]; 1 min) [µg/mL] | minimal bactericidal concentration (MBC) (P. aeruginosa PAO-1 [17]; 3 min) [µg/mL] | minimal bactericidal concentration (MBC) (P. aeruginosa PAO-1 [17]; 5 min) [µg/mL] | further results |
| --- | --- | --- | --- | --- | --- | --- | --- | --- | --- | --- | --- | --- | --- | --- | --- | --- | --- |
| 0.8 | 12.5 | 0.4 | 12.5 | CC(=O)O.CCCCCCCCCNC1=NC(C)(C)N=C(NCCc2ccccc2)N1 [compound 56] | 12.5 | 3.1 | 3.1 | 25 | 12.5 | 6.3 | 25 | 12.5 | 6.3 | 12.5 | 3.1 | 1.6 |  |
| 0.8 | 12.5 | 0.8 | 50 | CC(=O)O.CCCCCCCNC1=NC(C)(C)N=C(NCCCCCCC)N1 [compound 69] | 6.3 | 3.1 | 3.1 | 6.3 | 6.3 | 3.1 | 25 | 25 | 12.5 | 3.1 | 1.6 | 1.6 |  |

Further lines, the compound ahead of its results:

| SMILES | minimal inhibitory concentration (MIC) (MRSA 97-115 [8]) [µg/mL] | minimal inhibitory concentration (MIC) (E. coli NIHJ JC-2 [12]) [µg/mL] | minimal inhibitory concentration (MIC) (S. aureus 209PJC [13]) [µg/mL] | minimal inhibitory concentration (MIC) (P. aeruginosa PAO-1 [18]) [µg/mL] | minimal bactericidal concentration (MBC) (E. coli NIHJ JC-2 [1]; 1 min) [µg/mL] | minimal bactericidal concentration (MBC) (E. coli NIHJ JC-2 [1]; 3 min) [µg/mL] | minimal bactericidal concentration (MBC) (E. coli NIHJ JC-2 [1]; 5 min) [µg/mL] | minimal bactericidal concentration (MBC) (S. aureus 209PJC [2]; 1 min) [µg/mL] | minimal bactericidal concentration (MBC) (S. aureus 209PJC [2]; 3 min) [µg/mL] | minimal bactericidal concentration (MBC) (S. aureus 209PJC [2]; 5 min) [µg/mL] | minimal bactericidal concentration (MBC) (MRSA 97-115 [11]; 1 min) [µg/mL] | minimal bactericidal concentration (MBC) (MRSA 97-115 [11]; 3 min) [µg/mL] | minimal bactericidal concentration (MBC) (MRSA 97-115 [11]; 5 min) [µg/mL] | minimal bactericidal concentration (MBC) (P. aeruginosa PAO-1 [17]; 1 min) [µg/mL] | minimal bactericidal concentration (MBC) (P. aeruginosa PAO-1 [17]; 3 min) [µg/mL] | minimal bactericidal concentration (MBC) (P. aeruginosa PAO-1 [17]; 5 min) [µg/mL] | further results |
| --- | --- | --- | --- | --- | --- | --- | --- | --- | --- | --- | --- | --- | --- | --- | --- | --- | --- |
| N=C(NCCCCCCNC(=N)NC(=N)Nc1ccc(Cl)cc1)NC(=N)Nc1ccc(Cl)cc1.O=C(O)[C@H](O)[C@@H](O)[C@H](O)[C@H](O)CO.O=C(O)[C@H](O)[C@@H](O)[C@H](O)[C@H](O)CO [Control drug, chlorhexidine gluconate, reference compound] | 3.1 | 1.6 | 0.2 |  | 62.5 | 31.3 | 15.6 | 62.5 | 62.5 | 62.5 | 1000 | 250 | 125 |  |  |  | minimal bactericidal concentration (MBC) (P. aeruginosa No. 12 [3]; 1 min): 125 µg/mL; minimal bactericidal concentration (MBC) (P. aeruginosa No. 12 [3]; 3 min): 32 µg/mL; minimal bactericidal concentration (MBC) (P. aeruginosa No. 12 [3]; 5 min): 32 µg/mL; minimal bactericidal concentration (MBC) (P. aeruginosa KM 97-5 [4]; 1 min): 31 µg/mL; minimal bactericidal concentration (MBC) (P. aeruginosa KM 97-5 [4]; 3 min): 16 µg/mL; minimal bactericidal concentration (MBC) (P. aeruginosa KM 97-5 [4]; 5 min): 8 µg/mL; minimal bactericidal concentration (MBC) (VRE 49 [5]; 1 min): >1000 µg/mL; minimal bactericidal concentration (MBC) (VRE 49 [5]; 3 min): >1000 µg/mL; minimal bactericidal concentration (MBC) (VRE 49 [5]; 5 min): >1000 µg/mL; minimal inhibitory concentration (MIC) (MRSA KM 97-53 [6]): 3.1 µg/mL; minimal inhibitory concentration (MIC) (MRSA KM 97-108 [7]): 3.1 µg/mL; minimal bactericidal concentration (MBC) (MRSA KM 97-53 [9]; 1 min): 500 µg/mL; minimal bactericidal concentration (MBC) (MRSA KM 97-53 [9]; 3 min): 250 µg/mL; minimal bactericidal concentration (MBC) (MRSA KM 97-53 [9]; 5 min): 250 µg/mL; minimal bactericidal concentration (MBC) (MRSA KM 97-108 [10]; 1 min): 500 µg/mL; minimal bactericidal concentration (MBC) (MRSA KM 97-108 [10]; 3 min): 500 µg/mL; minimal bactericidal concentration (MBC) (MRSA KM 97-108 [10]; 5 min): 500 µg/mL; minimal inhibitory concentration (MIC) (P. aeruginosa No. 12 [14]): 12.5 µg/mL; minimal inhibitory concentration (MIC) (P. aeruginosa KM 97-5 [15]): 12.5 µg/mL; minimal inhibitory concentration (MIC) (VRE 49 [16]): 3.1 µg/mL |
| CC(=O)O.CCCCCCCCNC1=NC(C)(C)N=C(NCC2CCCCC2)N1 [compound 65] | 0.8 | 25 | 0.8 | 50 | 3.1 | 1.6 | 1.6 | 12.5 | 3.1 | 3.1 | 25 | 12.5 | 12.5 | 3.1 | 1.6 | 1.6 |  |
| CCCCCCCCCCCCCCNC1=NC(C)(C)N=C(N)N1.Cl [compound 72] | 1.6 | 25 | 0.8 | 25 | 6.3 | 3.1 | 3.1 | 3.1 | 1.6 | 1.6 | 25 | 12.5 | 12.5 | 3.1 | 1.6 | 1.6 |  |
| CC(=O)O.CCCCCCCCNC1=NC(C)(C)N=C(Nc2cnc3ccccc3c2)N1 [compound 82] | 1.6 | 25 | 0.8 | 50 | 6.3 | 6.3 | 3.1 | 12.5 | 6.3 | 6.3 | 50 | 25 | 25 | 12.5 | 12.5 | 6.3 |  |
